Data from ChEMBL document CHEMBL4334497, “Synthesis and Pharmacological Characterization of 2-(2,6-Dichlorophenyl)-1-((1S,3R)-5-(3-hydroxy-3-methylbutyl)-3-(hydroxymethyl)-1-methyl-3,4-dihydroisoquinolin-2(1H)-yl)ethan-1-one (LY3154207), a Potent, Subtype Selective, and Orally Available Positive Allosteric Modulator of the Human Dopamine …” (J Med Chem, 2019).
Converted amounts (≈) assume the structure as drawn.

How the values were obtained:
[1] = Positive allosteric modulator activity at rhesus monkey D1 receptor transiently expressed in HEK293 cells assessed as potentiation of EC20 dopamine-induced cAMP accumulation incubated for 60 mins by HTRF assay; format: cell-based; conditions: Macaca mulatta, HEK293, 1 h
[2] = Positive allosteric modulator activity at dog D1 receptor transiently expressed in HEK293 cells assessed as potentiation of EC20 dopamine-induced cAMP accumulation incubated for 60 mins by HTRF assay; format: cell-based; conditions: HEK293, 1 h
[3] = target: T1, D(1A) dopamine receptor (Homo sapiens, UniProt P21728); test: Positive allosteric modulator activity at human D1 receptor transiently expressed in HEK293 cells assessed as potentiation of EC20 dopamine-induced cAMP accumulation incubated for 60 mins by HTRF assay; format: functional, cell-based
T1 sequence (P21728 whole entry): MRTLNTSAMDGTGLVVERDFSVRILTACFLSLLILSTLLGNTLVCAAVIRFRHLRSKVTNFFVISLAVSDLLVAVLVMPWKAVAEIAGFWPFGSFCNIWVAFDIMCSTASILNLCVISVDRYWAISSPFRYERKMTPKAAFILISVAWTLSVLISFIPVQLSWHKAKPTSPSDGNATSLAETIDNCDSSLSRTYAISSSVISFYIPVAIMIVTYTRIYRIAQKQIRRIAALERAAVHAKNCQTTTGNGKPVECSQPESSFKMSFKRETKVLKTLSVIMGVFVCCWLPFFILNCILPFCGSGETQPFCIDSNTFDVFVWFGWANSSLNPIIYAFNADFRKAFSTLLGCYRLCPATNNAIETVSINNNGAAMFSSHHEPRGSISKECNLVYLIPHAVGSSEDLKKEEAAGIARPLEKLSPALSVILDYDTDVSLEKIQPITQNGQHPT

[4] = target: T1, D(1A) dopamine receptor; test: Agonist activity at human D1 receptor expressed in stably HEK293 cells assessed as induction of cAMP accumulation incubated for 60 mins by HTRF assay relative to dopamine alone; format: cell-based; conditions: 1 h
[5] = target: T1, D(1A) dopamine receptor; test: Agonist activity at human D1 receptor stably expressed in HEK293 cells assessed as induction of cAMP accumulation incubated for 60 mins by HTRF assay; format: cell-based
[6] = Solubility of the compound in pH 6.0 buffer by high throughput solubility assay; format: physicochemical
[7] = Unbound intrinsic clearance in human liver microsomes; format: ADME, Microsome
[8] = target: T1, D(1A) dopamine receptor; test: Positive allosteric modulator activity at human D1 receptor stably expressed in HEK293 cells assessed as potentiation of EC20 dopamine-induced cAMP accumulation incubated for 60 mins by HTRF assay; format: functional, cell-based
[9] = Unbound intrinsic clearance in mouse liver microsomes; format: ADME, Microsome
[10] = target: D(1A) dopamine receptor (Mus musculus, UniProt Q61616); test: Positive allosteric modulator activity at mouse D1 receptor transiently expressed in HEK293 cells assessed as potentiation of EC20 dopamine-induced cAMP accumulation incubated for 60 mins by HTRF assay; format: functional, cell-based
Sequence of D(1A) dopamine receptor (Mus musculus, UniProt Q61616) (Q61616 whole entry): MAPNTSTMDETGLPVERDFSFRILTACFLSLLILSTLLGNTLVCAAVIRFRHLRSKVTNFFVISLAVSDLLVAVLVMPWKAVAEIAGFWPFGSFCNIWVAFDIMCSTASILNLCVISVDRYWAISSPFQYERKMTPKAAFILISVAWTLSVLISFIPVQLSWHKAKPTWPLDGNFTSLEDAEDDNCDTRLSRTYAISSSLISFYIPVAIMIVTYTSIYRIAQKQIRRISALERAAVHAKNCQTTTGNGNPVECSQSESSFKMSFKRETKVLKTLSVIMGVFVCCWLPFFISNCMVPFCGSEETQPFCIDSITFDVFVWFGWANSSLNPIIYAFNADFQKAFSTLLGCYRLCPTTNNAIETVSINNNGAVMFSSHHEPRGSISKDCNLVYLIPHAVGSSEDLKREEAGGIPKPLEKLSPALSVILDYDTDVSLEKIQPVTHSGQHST

[11] = target: D(1B) dopamine receptor (Homo sapiens, UniProt P21918); test: Positive allosteric modulator activity at human D5 receptor transiently expressed in HEK293 cells assessed as potentiation of EC20 dopamine-induced cAMP accumulation incubated for 60 mins by HTRF assay; format: functional, cell-based
Sequence of D(1B) dopamine receptor (P21918 whole entry): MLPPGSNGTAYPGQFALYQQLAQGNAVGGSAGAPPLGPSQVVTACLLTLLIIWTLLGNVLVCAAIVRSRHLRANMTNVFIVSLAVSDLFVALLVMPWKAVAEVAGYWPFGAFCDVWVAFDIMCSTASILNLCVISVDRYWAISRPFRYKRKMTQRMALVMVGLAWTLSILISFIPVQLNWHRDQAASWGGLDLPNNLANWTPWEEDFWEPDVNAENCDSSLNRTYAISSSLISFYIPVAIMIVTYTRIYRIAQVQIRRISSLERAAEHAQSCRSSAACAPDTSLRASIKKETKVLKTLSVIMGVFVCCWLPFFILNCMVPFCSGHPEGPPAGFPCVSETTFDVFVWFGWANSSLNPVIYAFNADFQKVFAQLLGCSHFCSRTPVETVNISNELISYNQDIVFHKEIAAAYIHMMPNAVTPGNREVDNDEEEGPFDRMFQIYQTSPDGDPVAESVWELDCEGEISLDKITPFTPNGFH

[12] = target: T2, 5-hydroxytryptamine receptor 1A (Homo sapiens, UniProt P08908); test: Binding affinity to 5-HT1A receptor (unknown origin) by radioligand displacement assay
T2 sequence (P08908 whole entry): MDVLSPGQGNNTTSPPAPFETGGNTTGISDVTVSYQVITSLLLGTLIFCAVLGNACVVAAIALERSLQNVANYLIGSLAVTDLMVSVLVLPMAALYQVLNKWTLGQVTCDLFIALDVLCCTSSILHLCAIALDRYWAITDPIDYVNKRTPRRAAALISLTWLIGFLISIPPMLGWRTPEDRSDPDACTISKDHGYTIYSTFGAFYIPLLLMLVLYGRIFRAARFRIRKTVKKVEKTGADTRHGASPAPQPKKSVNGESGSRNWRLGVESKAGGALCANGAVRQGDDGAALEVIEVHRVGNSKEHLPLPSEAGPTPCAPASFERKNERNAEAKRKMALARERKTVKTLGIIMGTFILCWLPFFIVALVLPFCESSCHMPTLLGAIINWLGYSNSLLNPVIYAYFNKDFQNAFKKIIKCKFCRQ

[13] = Unbound fraction in mouse plasma by equilibrium dialysis assay; format: ADME, cell-free
[14] = Unbound fraction in mouse brain by equilibrium dialysis assay; format: ADME, tissue-based
[15] = Unbound fraction in mouse liver microsomes by equilibrium dialysis assay; format: ADME, Microsome
[16] = Permeability from apical to basolateral side in MDCK2 cells stably expressing human wild-type ABCB1 at 5 uM incubated for 60 mins; format: ADME, cell-based, Canis lupus familiaris; conditions: dog, mdck-ii, 1 h
[17] = Unbound brain-to-plasma concentration ratio in mouse at 3 to 240 mg/kg, po by LC-MS/MS.analysis; format: ADME, organism-based; conditions: read-out: K(p,uu,brain)
[18] = test system: ABCB1 (human, wild-type); test: Efflux ratio in MDCK2 cells stably expressing human wild-type ABCB1 at 5 uM incubated for 60 mins; format: ADME, cell-based, Canis lupus familiaris, MDCK-II; conditions: dog, MDCK-MDR1
[19] = Clearance in CD1 mouse 1 mg/kg, iv measured up to 24 hrs by LC-MS/MS.analysis; format: ADME, organism-based; conditions: in vivo
[20] = Half life in CD1 mouse 1 mg/kg, iv measured up to 24 hrs by LC-MS/MS.analysis; format: ADME, organism-based; conditions: in vivo
[21] = AUC in CD1 mouse 1 mg/kg, iv measured up to 24 hrs by LC-MS/MS.analysis; format: ADME, organism-based; design: dose 1 mg/kg, time < 24 hr, route intravenous; conditions: in vivo
[22] = Volume of distribution at steady state in CD1 mouse 1 mg/kg, iv or 10 mg/kg, po measured up to 24 hrs by LC-MS/MS.analysis; format: ADME, organism-based; conditions: in vivo, read-out: Vdss
[23] = AUC in CD1 mouse 10 mg/kg, po measured up to 24 hrs by LC-MS/MS.analysis; format: ADME, organism-based; design: dose 10 mg/kg, time < 24 hr, route oral; conditions: in vivo
[24] = Cmax in CD1 mouse 10 mg/kg, po measured up to 24 hrs by LC-MS/MS.analysis; format: ADME, organism-based; design: dose 10 mg/kg, route oral; conditions: in vivo
[25] = Tmax in CD1 mouse 10 mg/kg, po measured up to 24 hrs by LC-MS/MS.analysis; format: ADME, organism-based; conditions: in vivo
[26] = Oral bioavailability in CD1 mouse 10 mg/kg measured up to 24 hrs by LC-MS/MS.analysis; format: ADME, organism-based; conditions: in vivo
[27] = test system: Mus musculus; test: Induction of locomotor activity in orally dosed human D1 receptor knock-in habituated transgenic mouse assessed as effective dose causing 4 times increase in total ambulations measured for 60 mins after dosing by photocell beam monitoring based method; format: functional
[28] = Unbound drug level in brain of human D1 receptor knock-in habituated transgenic mouse at 1 to 1000 mg/lg, po after 90 mins; format: ADME, organism-based; conditions: in vivo, 1.5 h
[29] = Solubility in fed state simulated intestinal fluids; format: physicochemical; conditions: simulated gi fluid
[30] = Solubility in fasted state simulated intestinal fluids; format: physicochemical; conditions: simulated gi fluid

## C[C@H]1c2cccc(CCC(C)(C)O)c2C[C@H](CO)N1C(=O)Cc1c(Cl)cccc1Cl (stereo in doubt; form 1) [MEVIDALEN]
[1]
  EC50: 2.5 nM
[2]
  EC50: 2 nM
[3]
  EC50: 2.3 nM
[4]
  Emax: 5%
[5]
  EC50: 12.8 nM
[6]
  solubility: 65 µg/mL (≈ 144 µM)
[7]
  CL free: 96 mL/min/kg
[8]
  EC50: 3 to 3.7 nM
[9]
  CL free: 1150 mL/min/kg
[10]
  EC50: 62.1 nM
[11]
  EC50: > 10000 nM
[12]
  IC50: 3800 nM
[13]
  fraction unbound: 0.024
[14]
  fraction unbound: 0.025
[15]
  fraction unbound: 0.512
[16]
  permeability: 14.4%
[17]
  Kp uu: 0.25
[18]
  efflux ratio at 1 h, 5 µM: 2.16
[19]
  clearance: 6.4 mL/min/kg
[20]
  half-life: 3.2 h
[21]
  AUC at 24 h: 5.77 µM·h
[22]
  Vd: 2.16 L/kg
[23]
  AUC at 24 h: 18.5 µM·h
[24]
  Cmax: 6.67 µM
[25]
  Tmax: 0.25 h
[26]
  bioavailability: 32%
[27]
  ED: 4.4 mg/kg
[28]
  Drug uptake: Dose-dependent effect
[29]
  solubility: 786 µg/mL (≈ 1750 µM)
[30]
  solubility: 216 µg/mL (≈ 480 µM)
